Like-named read-outs stand apart in the source and are kept apart here.
Experiments:
[1] = biological target: T1, 5-HT2A receptor (Homo sapiens, UniProt P28223); experiment: biochemical; format: binding; conditions: 1 nM [^3H]ketanserin, HEK293 stable cell line; read-out: 5-HT2A Receptor Ki (nM) ([^3H]ketanserin)
T1 construct: host or cells: HEK293
Protocol: Affinity of the test compounds for the 5-HT2A receptor was determined in radioligand binding experiments with [^3H]ketanserin by WuXi AppTec (Hong Kong) Limited, using methods adapted from the literature and under conditions described in Table 1.

[2] = biological target: T1, 5-HT2A receptor; experiment: cell-based; format: cell-based; conditions: Ca^2+ flux, agonist; read-out: 5-HT2A EC50
Protocol: (§1) Functional Assays at 5-HT2A, 5-HT2B, and 5-HT1A. Agonist activity at 5-HT2A, 5-HT2B, and 5-HT1A receptors was determined using a FLIPR Ca^2+ flux assay at WuXi AppTec (Hong Kong) Limited according to their standard protocols. Briefly, stably transfected cells expressing the receptor of interest (HEK293 for 5-HT2A and 5-HT2B; CHO cells for 5-HT1A) were grown and plated in a 384 well plate and incubated at 37° C. and 5% CO2 overnight. A solution of 250 mM probenecid in 1 mL FLIPR assay buffer was prepared fresh. This was combined with a fluorescent dye (Fluo-4 Direct™) to make a final assay concentration of 2.5 mM. […] The fluorescent dye was then added to the assay plate along with assay buffer to a final volume of 40 μL. The cell plate was incubated for 50 min at 37° C. and 5% CO2 and placed into the FLIPR Tetra along with the compound plate. 10 μL of references and compounds were then transferred from the compound plate into the cell plate and the fluorescent signal was read.

[3] = biological target: T2, 5-HT1A receptor (Homo sapiens, UniProt P08908); experiment: cell-based
T2 construct: host or cells: CHO cells
T2 sequence (P08908 1-422): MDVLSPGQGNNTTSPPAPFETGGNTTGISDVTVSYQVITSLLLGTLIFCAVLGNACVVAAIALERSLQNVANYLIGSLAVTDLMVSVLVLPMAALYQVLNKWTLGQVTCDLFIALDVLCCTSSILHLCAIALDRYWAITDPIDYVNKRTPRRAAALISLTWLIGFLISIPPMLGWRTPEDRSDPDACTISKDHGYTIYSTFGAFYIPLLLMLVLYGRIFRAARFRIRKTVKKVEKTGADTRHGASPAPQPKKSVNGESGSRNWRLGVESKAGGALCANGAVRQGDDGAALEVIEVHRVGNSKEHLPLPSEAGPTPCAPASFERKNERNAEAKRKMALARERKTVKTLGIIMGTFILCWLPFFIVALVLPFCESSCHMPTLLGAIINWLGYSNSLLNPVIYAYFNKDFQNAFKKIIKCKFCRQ
Protocol: as §1

[4] = biological target: T3, 5-HT2B receptor (Homo sapiens, UniProt P41595); experiment: cell-based; conditions: Ca^2+ flux, agonist; for EC50: read-out: 5-HT2B EC50
T3 construct: host or cells: HEK293
T3 sequence (P41595 whole entry): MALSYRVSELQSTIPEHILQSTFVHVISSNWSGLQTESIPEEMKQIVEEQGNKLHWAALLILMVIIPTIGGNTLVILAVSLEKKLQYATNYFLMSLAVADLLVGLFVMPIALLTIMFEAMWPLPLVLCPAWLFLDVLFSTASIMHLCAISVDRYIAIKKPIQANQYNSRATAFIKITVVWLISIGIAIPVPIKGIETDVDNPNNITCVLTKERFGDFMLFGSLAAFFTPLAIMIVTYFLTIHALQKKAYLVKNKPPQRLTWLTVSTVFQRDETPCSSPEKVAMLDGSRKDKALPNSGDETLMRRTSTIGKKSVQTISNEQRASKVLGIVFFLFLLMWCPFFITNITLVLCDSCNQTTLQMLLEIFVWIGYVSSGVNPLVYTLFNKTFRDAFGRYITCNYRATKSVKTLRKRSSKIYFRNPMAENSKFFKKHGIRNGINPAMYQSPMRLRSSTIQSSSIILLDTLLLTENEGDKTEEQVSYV
Protocol: as §1

[5] = biological target: 5-HT1B receptor (Homo sapiens, UniProt P28222); experiment: cAMP accumulation agonist assay at 5-HT1B; format: cell-based; conditions: cAMP, agonist; read-out: 5-HT1B EC50
5-HT1B receptor, sequence (P28222 whole entry): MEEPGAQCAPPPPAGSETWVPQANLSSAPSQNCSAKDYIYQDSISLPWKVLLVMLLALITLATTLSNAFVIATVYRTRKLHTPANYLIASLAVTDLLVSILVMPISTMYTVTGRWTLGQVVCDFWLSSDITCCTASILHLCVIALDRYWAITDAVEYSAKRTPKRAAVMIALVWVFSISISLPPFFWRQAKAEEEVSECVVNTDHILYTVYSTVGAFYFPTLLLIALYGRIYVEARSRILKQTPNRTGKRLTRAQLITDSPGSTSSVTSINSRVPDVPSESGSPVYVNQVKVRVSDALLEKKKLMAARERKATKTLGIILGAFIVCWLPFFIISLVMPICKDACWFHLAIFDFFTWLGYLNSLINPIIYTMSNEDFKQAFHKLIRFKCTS
Protocol: Disclosed compounds were tested for agonist activity at several serotonin receptor subtypes (5-HT2A, […], 5-HT2C, and 5-HT1A) using Ca^2+ flux functional assays and the 5-HT1B receptor using a cAMP accumulation assay, with the results summarized in Table 4. […] Potent agonist activity was also observed at the other serotonin receptors tested, although the selectivity profile among the receptors varied across compounds. […]. However, at the same time, the N-propyl compounds were more efficacious agonists at 5-HT2B than the corresponding N-methyl compounds. The selectivity of disclosed compounds for 5-HT2A over 5-HT2C and 5-HT1A was less predictable and varied widely across compounds, ranging from ˜1:6 to ˜20:1 (2C/2A) in the case of 5-HT2C and from ˜1:4 to >100:1 (1A/2A) in the case of 5-HT1A. […] An azetidinyl amide substituent tended to increase potency at 5-HT1A relative to 5-HT2A.
Functional Assay at 5-HT1B. Agonist activity at 5-HT1B was determined using a cAMP accumulation protocol at WuXi AppTec (Hong Kong) Limited according to their standard protocols. Briefly, stably transfected cells were plated in an OptiPlate-384 well plate, incubated at RT for 60 mins, and cAMP standard solution (800 nM, 10 μL) was added to the blank well. Then, 10 μL detection reagent was added to each well, the plate incubated for 60 mins at RT, and the plate read using EnVision.

[6] = Metabolic stability in human liver microsomes (HLM); format: in vitro ADME; conditions: for t1/2: 1 μM, 0.50 mg protein per mL; for microsomal CLint at 1 μM: both sexes, human, pooled human liver microsomes, pH 7.4, 0.50 mg protein per mL
Excerpt: HLM Stability. Pooled HLM from adult male and female donors (Corning 452117) were used.

[7] = Metabolic stability in mouse liver microsomes (MLM); format: in vitro ADME; conditions: 0.50 mg protein per mL; for t1/2: MLM (CD-1), 1 μM; for microsomal CLint at 1 μM: mouse, pooled mouse liver microsomes, pH 7.4, MLM (CD-1)
Excerpt: MLM Stability Pooled MLM from CD-1 mice (BIOIVT M00501) were used.

[8] = Metabolic stability in rat liver microsomes (RLM); conditions: for t1/2: RLM, 0.50 mg protein per mL; for microsomal CLint at 1 μM: both, rat, pooled rat liver microsomes, pH 7.4
[9] = biological target: T1, 5-HT2A receptor; experiment: PathHunter beta-arrestin recruitment assay at 5-HT2A; format: cell-based
Protocol: The degree of arrestin bias varied substantially across the other compounds tested as well.
Arrestin Functional Assay at 5-HT2A. Recruitment of beta-arrestin was determined using a PathHunter assay at Eurofins DiscoverX (Fremont, Calif.) according to their standard protocols. PathHunter GPCR beta-arrestin assays take advantage of DiscoverX's proprietary Enzyme Fragment Complementation technology. The GPCR is fused in frame with a small enzyme donor fragment ProLink™ (PK) and co-expressed in cells stably expressing a fusion protein of beta-arrestin and the larger, N-terminal deletion mutant of beta-galactosidase. Activation of the GPCR (5-HT2A receptor in this case) stimulates binding of beta-arrestin to the PK-tagged GPCR and forces complementation of the two enzyme fragments, resulting in the formation of an active beta-galactosidase enzyme. This interaction leads to an increase in enzyme activity that can be measured using chemiluminescent PathHunter Detection Reagents. Briefly, PathHunter cells expressing 5-HT2A receptors were seeded in a volume of 20 μL into 384-well plates and incubated at 37° C. for the appropriate time prior to testing. […] Plates were then imaged on a microplate reader and the agonist activity was calculated using the following formula: % Activity=100%×(mean RLU of test sample−mean RLU of vehicle control)/(mean MAX control ligand−mean RLU of vehicle control), where RLU=relative light units.

[10] = test system: C57BL/6 mice; experiment: Head twitch response (HTR) in mice; format: in vivo, mouse; conditions: mouse HTR, SC
Protocol: Agonists of the 5-HT2A receptor are well known to induce this effect in rodents and the potency of this HTR is correlated with hallucinogenic potency in humans.
Animals. Adult male C57BL/6 mice, aged 6-8 weeks (body weight 20-25 g) were used in this experiment. Animals were housed under controlled temperatures and 12-hour light/dark cycles (lights on between 07:00-19:00 h), with ad libitum food and water. This study was carried out in strict accordance with the requirements of the Committee for the Purpose of Control and Supervision of Experiments on Animals (CPCSEA), India. All efforts were made to minimize suffering.
Drugs and Drug Administration. Compound 1 was synthesized as described above. It was administered subcutaneously (SC) dissolved in saline vehicle at a volume of 10 mL/kg. Five doses were tested, with n=6 animals/group. Doses were calculated on the basis of the freebase.
Procedure. Mice were administered one dose of the drug and immediately placed into a small open field for behavioral observation. Animals were observed continuously for 20 mins and the number of head twitches (HTs) were counted by an observer blind to the treatment condition.
Statistical Analysis. The data points shown are the mean±standard error of the mean (SEM). Analysis was performed using GraphPad Prism 6. Curves were fit using a non-linear gaussian distribution to calculate ED50 and Emax values.
Additional disclosed compounds were tested in the mouse head twitch response (HTR) assay according to the procedure described in Example 43. […] Lastly, compounds with much larger benzyl and phenethyl substituents on the amine nitrogen (e.g., 10 and 11) were low efficacy in this assay, consistent with their lower maximal efficacy in the arrestin functional assay (see Example 41).

[11] = Ca^2+ flux, agonist, read-out: 5-HT1A EC50

T1 sequence (P28223 whole entry): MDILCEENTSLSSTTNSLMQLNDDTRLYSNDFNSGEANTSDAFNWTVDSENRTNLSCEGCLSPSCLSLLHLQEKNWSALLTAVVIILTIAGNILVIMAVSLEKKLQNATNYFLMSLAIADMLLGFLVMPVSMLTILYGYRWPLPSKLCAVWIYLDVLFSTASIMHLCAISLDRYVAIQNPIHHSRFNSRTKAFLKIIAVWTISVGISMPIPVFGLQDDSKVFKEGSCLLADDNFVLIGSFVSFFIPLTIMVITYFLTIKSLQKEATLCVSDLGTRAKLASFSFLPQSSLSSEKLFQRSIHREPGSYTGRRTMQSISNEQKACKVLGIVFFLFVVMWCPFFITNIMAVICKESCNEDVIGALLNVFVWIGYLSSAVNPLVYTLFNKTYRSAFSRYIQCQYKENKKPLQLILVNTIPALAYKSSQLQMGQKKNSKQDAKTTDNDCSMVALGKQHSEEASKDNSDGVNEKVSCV

Row | Compound | Ki [1] [nM] | EC50 [2] [nM] | EC50 [3, 11] [µM] | 5-HT2B % Act @ Max Dose [4] [%] | EC50 [4] [µM] | EC50 [5] [nM] | t1/2 [6] [min] | microsomal CLint at 1 μM [6] [µL/min/mg] | t1/2 [7] [min] | microsomal CLint at 1 μM [7] [µL/min/mg] | t1/2 [8] [min] | microsomal CLint at 1 μM [8] [µL/min/mg] | 5-HT1A % Act @ Max Dose ([3]; Ca^2+ flux, agonist) [%] | EC50 [3] [µM] | EC50 [9] [nM] | Emax ([9]; 5-HT2A beta-arrestin) [%] | agonist type in arrestin recruitment assay (in words) ([9]; 5-HT2A beta-arrestin) | ED50 ([10]; 20 min, 20 min observation, curve fit, poor in some cases, read-out: ED50 (95% CI)) [mg/kg] | Most Efficacious Dose [10] [mg/kg] | Emax (95% CI) ([10]; 20 min observation, curve fit, poor in some cases)
1 | CCN(CC)C(=O)[C@@H]1C=C2c3cccc4[nH]cc(c34)C[C@H]2N(CCc2cccc(OC)c2)C1 [Compound 20, (6aR,9R)—N,N-diethyl-7-(3-methoxyphenethyl)-4,6,6a,7,8,9-hexahydroindolo[4,3-fg]quinoline-9-carboxamide] | 1.03 | 265 | > 10 | 3.60 | > 10 | > 10000 | 2.1 | 649 | 0.9 | 1550 | 1.2 | 1150 | – | – | – | – | – | – | – | –
2 | CCN(CC)C(=O)[C@@H]1C=C2c3cccc4[nH]cc(c34)C[C@H]2N(CCc2ccc(OC)cc2)C1 [Compound 21, (6aR,9R)—N,N-diethyl-7-(4-methoxyphenethyl)-4,6,6a,7,8,9-hexahydroindolo[4,3-fg]quinoline-9-carboxamide] | 1.93 | 619 | > 10 | – | > 10 | 2750 | 3.8 | 368 | 1.9 | 717 | 4.3 | 323 | 8.2 | – | – | – | – | – | – | –
3 | CCN(CC)C(=O)[C@@H]1C=C2c3cccc4[nH]cc(c34)C[C@H]2N(Cc2ccccn2)C1 [Compound 22, (6aR,9R)—N,N-diethyl-7-(pyridin-2-ylmethyl)-4,6,6a,7,8,9-hexahydroindolo[4,3-fg]quinoline-9-carboxamide] | 28.4 | 748 | 7.84 | – | > 10 | 847 | 23.8 | 58.2 | 9.2 | 150 | 13.2 | 105 | – | – | – | – | – | – | – | –
4 | CCN(CC)C(=O)[C@@H]1C=C2c3cccc4[nH]cc(c34)C[C@H]2N(CCc2ccccn2)C1 [Compound 23, (6aR,9R)—N,N-diethyl-7-(2-(pyridin-2-yl)ethyl)-4,6,6a,7,8,9-hexahydroindolo[4,3-fg]quinoline-9-carboxamide] | 26.6 | 512 | > 10 | – | > 10 | 450 | 7.2 | 193 | 1.8 | 769 | 4.2 | 332 | – | – | – | – | – | – | – | –
5 | C[C@H]1C[C@H](C)N1C(=O)[C@@H]1C=C2c3cccc4[nH]cc(c34)C[C@H]2N(C)C1 [Int11, ((2S,4S)-2,4-dimethylazetidin-1-yl)((6aR, 9R)-7-methyl-4,6,6a,7,8,9-hexahydroindolo[4,3-fg]quinolin-9-yl)methanone] | 2.22 | 37 | – | – | 0.0966 | – | 25.7 | 53.9 | 13.9 | 100 | 54.9 | 25.3 | – | 0.00888 | 1.57 | < 60 | partial agonists | 0.0154 | 0.1 | 10.93 (9.181-12.76)

— patent US20230116703A1, “NOVEL ERGOLINES AND METHODS OF TREATING MOOD DISORDERS” (priority 2021, published 2023)
